Assay results from patent publication US6355619B1, “Peptide tumor cell growth inhibitors” (Board of Regents, The University of Texas System, priority 1996, dated 2002).
Like-named read-outs stand apart in the source and are kept apart here.

Tests used:
[1] = test system: DU145 (adenocarcinoma of prostate); test: Growth of DU145, MTT assay; format: cell-based; conditions: DU145, serum-starved, 24 hours
Description: FIG. 18. The effect of Antileukinate on growth of DU145 (adenocarcinoma of prostate) cell line. Serum-starved DU145 were incubated with the indicated concentrations of Antileukinate for 24 hours. MTT assay was then performed. Cell umber was decreased in a dose-dependent manner and there are significant differences from controls at concentrations greater than, or equal to 100 μM of Antileukinate (p<0.05).

[2] = test system: neutrophils; test: Checkerboard analysis for chemotactic activity of the peptide itself; format: cell-based, human
Description: (§1) Chemotaxis was performed using the leading front method as described by Zigmond and Hirsh (1973). IL-8 or controls were placed in the lower well of a Boyden chamber. A five micron pore size, 100 μm. thick cellulose nitrate filter (Sartorius Filter,. Inc., San Francisco, Calif.) was placed on the surface and the chamber was then assembled. A 200 μl aliquot of the neutrophil preparation (1×10^6 cells/ml) in RPMI-1640 media containing 1% BSA was added to the top of the filter and incubated at 37° C. for 30 min. The filter was then fixed, stained and mounted on a glass microscope slide. The leading front was determined by the position of the leading two cells. The distance that the leading two cells had moved through the filter was measured for six fields on each filter. The measurements were made with four filters for each set of conditions.

[3] = test system: IL-8 receptors on neutrophils; test: Inhibition of 125I-labeled IL-8 binding to human neutrophils; conditions: for Receptor 1 Bmax of IL-8, two-site model / Receptor 2 Bmax of IL-8, two-site model: binding isotherms, Lundon I
Description: Therefore, in pursuing this aim, the present inventors assayed various other peptide compositions for IL-8 inhibitory activity by screening a library of 400 groups of hexapeptides. In these screening assays, ^125I-labeled interleukin-8 (10^−12 M) was mixed with 100 μM peptide, then added to neutrophils and incubated at 4° C. for 90 min. The bound radioactivity was separated from unbound by centrifugation through a dense cushion of a mixture of paraffin and silicon oils and the ^125I bound to neutrophils was counted in a gamma radiation spectrometer, allowing the results to be expressed as the percent of IL-8 binding which was inhibited.
The use of human subjects for acquisition of neutrophils was approved by the Institutional Review Board for human experimentation. For the preparation of neutrophils, human blood was anticoagulated with heparin for enzyme release studies and with 0.33% sodium citrate for other studies. For chemotactic and enzyme release studies neutrophils were separated by dextran sedimentation and erythrocyte lysis by the method of Boyum (Kohler and Milstein, 1975). For binding studies and cytotoxic studies, the neutrophils were further purified in gradients of Percoll (Pharmacia Fine Chemicals, Piscataway, N.J.) to a purity of 90-93% (Kohler and Milstein, 1975).
Recombinant human IL-8 (72 amino acids; Pepro Tech Inc., Rocky Hill, N.J.) was radioactively labeled with ^125I by the chloramine T method of Hunter and Greenwood (Hunter and Greenwood, 1962). Binding studies were performed according to Besemer et al. (1989), as follows: Neutrophils in phosphate buffered saline pH 7.4 (PBS) containing 0.1% bovine serum albumin (BSA) were incubated with labeled ligand in the presence or absence of the peptide being tested for 90 min at 4° C. to reach equilibrium and then centrifuged at 12,000×g for 3 min in Beckman B microfuge (Beckman Instruments, Fullerton, Calif.), through a cushion consisting of a mixture of paraffin oil Fisher Scientific, Fair Lawn, N.J.) and silicon oil (Serva Co., N.Y., N.Y.). The pellet and supernatant were then counted in a gamma radiation spectrometer. The non-specific binding was estimated to measure the binding in the presence of 100-fold excess of non-labeled ligand. The binding constants were calculated using the computer programs Lundon I and Lundon II.
In these studies, a screening for inhibition was carried out at 100 μM concentration of the peptide being tested, with a 10^−12 M concentration of IL-8. In the first series of studies, twenty peptides were synthesized with the carboxyl-terminal residue of RRWWCX (SEQ ID NO:23) being changed to each of the standard protein amino acids in turn.

[4] = test system: IL-8-induced neutrophil chemotaxis; test: Neutrophil chemotaxis stimulated by IL-8 (leading front, Boyden chamber); format: cell-based, human
Description: FIG. 7. The Effect of Ac-RRWWCR-NH2 (SEQ ID NO:1) on Neutrophil Chemotaxis. Chemotaxis was performed in the presence of increasing concentration of Ac-RRWWCR-NH2 (SEQ ID NO:1) in both upper and lower chamber. Stimulants added to lower chamber were 10 nM IL-8 (●), 10 nM fMLP (▪), or media alone (◯) as control. Analysis of variance was used for multiple comparison.
as §1

[5] = test system: C8161 melanoma cells; test: Tumor cell growth, C8161; format: cell-based
[6] = peptide below filter 1.0 μM, above filter 5.0 μM
[7] = peptide below filter 1.0 μM, above filter 12.5 μM
[8] = peptide below filter 1.0 μM, above filter 25.0 μM
[9] = peptide below filter 5.0 μM, above filter 1.0 μM
[10] = peptide below filter 5.0 μM, above filter 12.5 μM
[11] = peptide below filter 5.0 μM, above filter 25.0 μM
[12] = peptide below filter 12.5 μM, above filter 1.0 μM
[13] = peptide below filter 12.5 μM, above filter 5.0 μM
[14] = peptide below filter 12.5 μM, above filter 25.0 μM
[15] = peptide below filter 25.0 μM, above filter 1.0 μM
[16] = peptide below filter 25.0 μM, above filter 5.0 μM
[17] = peptide below filter 25.0 μM, above filter 12.5 μM
[18] = +10 μM Ac-RRWWCR, binding inhibition curves, Lundon II

RRWWCR [Ac-RRWWCR-NH2]
concentrations with significant difference in cell number from controls (p<0.05) [1]: ≥ 100 µM | chemotactic activity of the peptide (checkerboard analysis) [2]: not chemotactic for neutrophils | effect on chemokinesis of neutrophils ([2]; control studies, media alone): had no effect on chemokinesis | migration, mean ± SD of experimental observations ([2]; peptide below filter 1.0 μM, above filter 1.0 μM): 27.8 ± 5.5 | calculated migration expected if cells responded to absolute concentration, not gradient [2, 6]: 29.1 | migration, mean ± SD of experimental observations [2, 6]: 28.0 ± 4.7 | calculated migration expected if cells responded to absolute concentration, not gradient [2, 7]: 24.2 | migration, mean ± SD of experimental observations [2, 7]: 25.6 ± 4.0 | calculated migration expected if cells responded to absolute concentration, not gradient [2, 8]: 24.3 | migration, mean ± SD of experimental observations [2, 8]: 26.7 ± 6.3 | calculated migration expected if cells responded to absolute concentration, not gradient [2, 9]: 28.0 | migration, mean ± SD of experimental observations [2, 9]: 29.6 ± 6.3 | migration, mean ± SD of experimental observations ([2]; peptide below filter 5.0 μM, above filter 5.0 μM): 29.3 ± 7.2 | calculated migration expected if cells responded to absolute concentration, not gradient [2, 10]: 23.7 | migration, mean ± SD of experimental observations [2, 10]: 24.2 ± 5.4 | calculated migration expected if cells responded to absolute concentration, not gradient [2, 11]: 24.4 | migration, mean ± SD of experimental observations [2, 11]: 25.9 ± 6.7 | calculated migration expected if cells responded to absolute concentration, not gradient [2, 12]: 28.4 | migration, mean ± SD of experimental observations [2, 12]: 27.0 ± 5.5 | calculated migration expected if cells responded to absolute concentration, not gradient [2, 13]: 28.5 | migration, mean ± SD of experimental observations [2, 13]: 27.5 ± 4.8 | migration, mean ± SD of experimental observations ([2]; peptide below filter 12.5 μM, above filter 12.5 μM): 22.9 ± 5.9 | calculated migration expected if cells responded to absolute concentration, not gradient [2, 14]: 24.5 | migration, mean ± SD of experimental observations [2, 14]: 24.8 ± 5.8 | calculated migration expected if cells responded to absolute concentration, not gradient [2, 15]: 28.4 | migration, mean ± SD of experimental observations [2, 15]: 30.9 ± 4.7 | calculated migration expected if cells responded to absolute concentration, not gradient [2, 16]: 27.1 | migration, mean ± SD of experimental observations [2, 16]: 27.5 ± 4.9 | calculated migration expected if cells responded to absolute concentration, not gradient [2, 17]: 23.1 | migration, mean ± SD of experimental observations [2, 17]: 27.9 ± 4.8 | migration, mean ± SD of experimental observations ([2]; peptide below filter 25.0 μM, above filter 25.0 μM): 24.7 ± 3.8 | concentration at which IL-8 binding was suppressed significantly ([3]; 1 nM 125I-labeled IL-8 (FIG. 5)): 100 nM | EC50 ([3]; 1 nM 125I-labeled IL-8, 90 min at 4° C., multiple replicates, read-out: average EC50 of the binding inhibition curve): 13.7 ± 0.6 µM | EC50 ([3]; 1 nM IL-8, FIG. 10, peptide premixed with ligand 15 min, read-out: EC50, inhibition of binding of IL-8 to neutrophils): ~25 µM | inhibition of IL-8 binding to neutrophils ([3]; 10 μM peptide (FIG. 9)): 20% | Receptor 1 Bmax of IL-8, two-site model ([3]; 10 μM peptide): 91.9 ± 9.2 fmole/10^6 cells | Receptor 2 Bmax of IL-8, two-site model ([3]; 10 μM peptide): 90.9 ± 9.7 fmole/10^6 cells | IL-8 binding inhibition at lower peptide concentration (FIG. 1) ([3]; 20 μM peptide): most potent inhibitor | Receptor 1 Bmax of IL-8, two-site model ([3]; 20 μM peptide): 90.9 ± 27.3 fmole/10^6 cells | Receptor 2 Bmax of IL-8, two-site model ([3]; 20 μM peptide): 76.2 ± 11.8 fmole/10^6 cells | Receptor 1 Bmax of IL-8, two-site model ([3]; 40 μM peptide): 82.0 ± 25.4 fmole/10^6 cells | Receptor 2 Bmax of IL-8, two-site model ([3]; 40 μM peptide): 44.2 ± 30.0 fmole/10^6 cells | % INHIB. (IL-8 binding to neutrophils) ([3]; 100 μM peptide, 10^−12 M IL-8, hexamer RRWWCX series, first screen): 112.2% | Receptor 1 Bmax of IL-8 [3, 18]: 11.2 ± 0.8 fmole/10^6 cells | Receptor 2 Bmax of IL-8 [3, 18]: 75.6 ± 0.7 fmole/10^6 cells | % INHIB. (IL-8 binding to neutrophils) ([3]; first set of heptamer studies, D-amino acid RRWWCRX series, methodology of Example I): 112.2% | effectiveness relative to the non-acetylated peptide ([3]; inhibiting IL-8 binding to neutrophils): almost twice as effective | IC50 ([3]; read-out: IC50, binding of radiolabeled IL-8): 13.7 µM | Ki ([3]; specific binding of 125I-labeled IL-8, read-out: apparent K1 (estimated, purely competitive single site model)): ~10 µM | % Binding Inhibition (IL-8 binding to neutrophils) ([3]; synthetic peptides, standard assay (Table 6)): 98.6 ± 0.9% | peptide concentration significantly suppressing chemotaxis ([4]; chemotaxis induced by 10 nM IL-8): 50 lM | peptide concentration significantly inhibiting chemotaxis ([4]; neutrophils stimulated with 10 nM IL-8): 50 µM | effect on cell growth [5]: suppresses the growth
